Assay results as given in US20250188040A1, “PHARMACEUTICAL COMPOSITIONS COMPRISING WRN HELICASE INHIBITORS” (Vividion Therapeutics, Inc., priority 2022, published 2025).
pIC50: −log10 of the molar value. Like-named read-outs stand apart in the source and are kept apart here.

What was measured:
[1] = biological target: hWRN(519-1227)_C-H3CV-GFP-10His (Homo sapiens, UniProt Q14191); experiment: Helicase Assay for WRN Inhibition (ATP-dependent, fluorescence based)
WRN C727 = biological target: T1, WRN C727 (Homo sapiens, UniProt Q14191); experiment: Target engagement, in vitro (lysate), OCI-AML2; type: binding; conditions: read-out: OCI-AML2 WRN C727 TE50 in vitro (lysate)
T1 construct: endogenous in cells; host or cells: OCI-AML2
T1 sequence (Q14191 whole entry): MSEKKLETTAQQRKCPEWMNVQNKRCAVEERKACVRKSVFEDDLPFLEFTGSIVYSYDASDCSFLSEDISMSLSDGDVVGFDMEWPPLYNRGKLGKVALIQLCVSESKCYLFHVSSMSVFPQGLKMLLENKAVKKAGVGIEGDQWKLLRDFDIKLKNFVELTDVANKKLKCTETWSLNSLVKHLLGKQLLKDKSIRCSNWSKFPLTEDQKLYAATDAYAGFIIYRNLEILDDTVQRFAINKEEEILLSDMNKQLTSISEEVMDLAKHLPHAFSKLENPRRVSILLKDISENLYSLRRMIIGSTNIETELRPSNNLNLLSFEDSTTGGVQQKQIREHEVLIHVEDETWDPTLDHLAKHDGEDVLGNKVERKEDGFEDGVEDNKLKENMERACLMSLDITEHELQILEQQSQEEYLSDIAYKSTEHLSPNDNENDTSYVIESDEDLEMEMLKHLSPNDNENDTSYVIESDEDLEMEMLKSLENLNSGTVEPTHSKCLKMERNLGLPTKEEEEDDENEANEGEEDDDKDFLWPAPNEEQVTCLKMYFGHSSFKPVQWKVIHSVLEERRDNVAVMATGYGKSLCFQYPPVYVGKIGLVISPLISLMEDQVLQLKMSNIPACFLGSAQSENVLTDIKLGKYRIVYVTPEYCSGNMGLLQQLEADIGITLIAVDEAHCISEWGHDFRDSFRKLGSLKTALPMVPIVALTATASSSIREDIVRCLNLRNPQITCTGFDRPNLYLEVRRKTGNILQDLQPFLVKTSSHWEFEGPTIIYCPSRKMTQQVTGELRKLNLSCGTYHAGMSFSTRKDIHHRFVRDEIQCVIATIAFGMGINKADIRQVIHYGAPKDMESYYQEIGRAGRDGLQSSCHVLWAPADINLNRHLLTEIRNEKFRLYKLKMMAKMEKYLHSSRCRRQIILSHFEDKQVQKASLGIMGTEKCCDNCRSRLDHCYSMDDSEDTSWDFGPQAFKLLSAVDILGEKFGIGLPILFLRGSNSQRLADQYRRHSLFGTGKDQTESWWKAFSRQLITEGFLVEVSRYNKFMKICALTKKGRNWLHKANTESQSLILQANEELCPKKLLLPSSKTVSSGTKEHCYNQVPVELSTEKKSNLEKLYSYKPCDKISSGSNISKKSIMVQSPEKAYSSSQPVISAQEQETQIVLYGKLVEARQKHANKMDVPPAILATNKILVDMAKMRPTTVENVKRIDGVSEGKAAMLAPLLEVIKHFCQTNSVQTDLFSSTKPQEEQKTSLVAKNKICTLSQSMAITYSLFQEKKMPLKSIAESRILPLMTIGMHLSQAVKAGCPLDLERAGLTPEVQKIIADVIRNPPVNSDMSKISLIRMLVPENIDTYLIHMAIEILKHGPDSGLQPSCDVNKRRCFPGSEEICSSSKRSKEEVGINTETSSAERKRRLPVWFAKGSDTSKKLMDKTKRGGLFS
Method: Cells or cell lysates were treated with a dose response of compound followed by probe treatment, which labels solvent exposed cysteines. Proteins were enzymatically digested with trypsin and probe-labelled peptides were enriched with streptavidin. Isolated peptides were then separated using reversed-phase liquid chromatography on a C18 column (Dionex Ultimated 3000 nano-LC, Thermo). Peptides were analyzed by parallel reaction monitoring mass spectrometry (Exploris 120, Thermo).
Target engagement (%) is calculated relative to DMSO treated control samples.

[2] = WRN Helicase IC50, 30 min preincubation with ATP, 30 min reaction

Chain of hWRN(519-1227)_C-H3CV-GFP-10His (Q14191 519-1227): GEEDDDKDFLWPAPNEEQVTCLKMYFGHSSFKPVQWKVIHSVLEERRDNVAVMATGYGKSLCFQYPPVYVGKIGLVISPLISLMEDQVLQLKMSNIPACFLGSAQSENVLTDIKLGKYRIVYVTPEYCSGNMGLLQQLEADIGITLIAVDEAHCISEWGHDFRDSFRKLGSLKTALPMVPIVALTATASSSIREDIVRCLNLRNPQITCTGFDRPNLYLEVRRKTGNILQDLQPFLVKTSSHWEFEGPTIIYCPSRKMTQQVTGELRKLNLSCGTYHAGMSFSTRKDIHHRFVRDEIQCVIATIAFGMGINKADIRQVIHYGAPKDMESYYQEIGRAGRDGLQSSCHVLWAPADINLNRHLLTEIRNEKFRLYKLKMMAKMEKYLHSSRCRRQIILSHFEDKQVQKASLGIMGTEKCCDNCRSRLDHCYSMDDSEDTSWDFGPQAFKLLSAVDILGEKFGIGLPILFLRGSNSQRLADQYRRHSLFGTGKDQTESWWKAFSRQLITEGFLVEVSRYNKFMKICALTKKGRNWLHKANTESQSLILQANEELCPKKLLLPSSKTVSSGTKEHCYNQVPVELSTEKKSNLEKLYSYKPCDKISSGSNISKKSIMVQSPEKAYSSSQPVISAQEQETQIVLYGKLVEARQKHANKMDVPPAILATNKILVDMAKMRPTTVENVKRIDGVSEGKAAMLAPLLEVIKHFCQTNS

SMILES	pIC50 [1, 2]	pIC50 (WRN C727)	pIC50 [1]
CC(C)(C)c1ncc(C(=O)NC2(C=CS(C)(=O)=O)CC2)c(Oc2ccccc2)n1 (racemic) [Example 59, 2-(tert-butyl)-N-(1-(2-(methylsulfonyl)vinyl)cyclopropyl)-4-phenoxypyrimidine-5-carboxamide]	4.27	< 4.00	
C[C@@H](/C=C/S(C)(=O)=O)NC(=O)c1cnc(C2CCCC2)nc1O[C@H]1CCCC[C@H]1O (single isomer, unassigned) [Example 129]	4.07	< 4.00	
C[C@@H](/C=C/S(C)(=O)=O)NC(=O)c1cnc(C2CCCC2)nc1O[C@@H]1CCCC[C@@H]1O (single isomer, unassigned) [Example 130]	4.30	< 4.00	
C[C@@H](/C=C/S(C)(=O)=O)NC(=O)c1cnc(C2CCCC2)nc1O[C@H]1CCCC[C@@H]1O (single isomer, unassigned) [Example 131]	4.62	< 4.00	
C[C@@H](/C=C/S(C)(=O)=O)NC(=O)c1cnc(C2CCCC2)nc1O[C@@H]1CCCC[C@H]1O (single isomer, unassigned) [Example 132]	4.52	< 4.00	
CC1CC[C@@H](C)N1c1ncc(C(=O)N[C@@H](C)/C=C/S(C)(=O)=O)c(Oc2ccccc2)n1 (stereo in doubt) [Example 172, 2-((2R,5S)-2,5-dimethylpyrrolidin-1-yl)-N—((S,E)-4-(methylsulfonyl)but-3-en-2-yl)-4-phenoxypyrimidine-5-carboxamide]	4.89	4.51	
O=C(NC1C=CS(=O)(=O)C1)c1cnc(C2CC2)nc1Oc1ccccc1 (stereo not drawn) [Example 27, 2-cyclopropyl-N-(1,1-dioxido-2,3-dihydrothiophen-3-yl)-4-phenoxypyrimidine-5-carboxamide]			4.47
CO[C@H](C)[C@@H](/C=C/S(C)(=O)=O)NC(=O)c1cnc(C2CC2)nc1Oc1ccccc1 [Example 32, 2-cyclopropyl-N-((3R,4R,E)-4-methoxy-1-(methylsulfonyl)pent-1-en-3-yl)-4-phenoxypyrimidine-5-carboxamide]	4.46	< 4.00	
CS(=O)(=O)C1=CCN(C(=O)c2cnc(C3CC3)nc2Oc2ccccc2)C1 [Example 34, (2-cyclopropyl-4-phenoxypyrimidin-5-yl)(3-(methylsulfonyl)-2,5-dihydro-1H-pyrrol-1-yl)methanone]		< 4.00	4.59
C[C@@H](/C=C/S(C)(=O)=O)NC(=O)c1cnc(C2Cc3ccccc32)nc1Oc1ccccc1 (stereo partly drawn) [Example 52, 2-(bicyclo[4.2.0]octa-1,3,5-trien-7-yl)-N—((S,E)-4-(methylsulfonyl)but-3-en-2-yl)-4-phenoxypyrimidine-5-carboxamide]	4.18	< 4.00	
C[C@@H](/C=C/S(C)(=O)=O)NC(=O)c1cnc(C2CCOC2)nc1Oc1ccccc1 (stereo partly drawn) [Example 79, N—((S,E)-4-(methylsulfonyl)but-3-en-2-yl)-4-phenoxy-2-(tetrahydrofuran-3-yl)pyrimidine-5-carboxamide]	4.74	< 4.00	
Cc1ccc(Oc2nc(C3CCCC3)ncc2C(=O)NC/C=C/S(C)(=O)=O)cc1 [Example 104, (E)-2-cyclopentyl-N-(3-(methylsulfonyl)allyl)-4-(p-tolyloxy)pyrimidine-5-carboxamide]	4.72	4.66	
Cc1ccccc1Oc1nc(C2CCCC2)ncc1C(=O)N[C@@H](C)/C=C/S(C)(=O)=O [Example 106, (S,E)-2-cyclopentyl-N-(4-(methylsulfonyl)but-3-en-2-yl)-4-(o-tolyloxy)pyrimidine-5-carboxamide]	4.62	< 4.00	
CCc1ccc(Oc2nc(C3CCCC3)ncc2C(=O)N[C@@H](C)/C=C/S(C)(=O)=O)cc1 [Example 107, (S,E)-2-cyclopentyl-4-(4-ethylphenoxy)-N-(4-(methylsulfonyl)but-3-en-2-yl)pyrimidine-5-carboxamide]	4.09	< 4.00	
Cc1ccc(Oc2nc(C3CCCC3)ncc2C(=O)N[C@@H](C)/C=C/S(C)(=O)=O)cc1C [Example 109, (S,E)-2-cyclopentyl-4-(3,4-dimethylphenoxy)-N-(4-(methylsulfonyl)but-3-en-2-yl)pyrimidine-5-carboxamide]	3.74	< 4.00	
C[C@@H](/C=C/S(C)(=O)=O)NC(=O)c1cnc(C2CCCC2)nc1Oc1ccccn1 [Example 126, (S,E)-2-cyclopentyl-N-(4-(methylsulfonyl)but-3-en-2-yl)-4-(pyridin-2-yloxy)pyrimidine-5-carboxamide]	4.35	< 4.00	
C[C@@H](/C=C/S(C)(=O)=O)NC(=O)c1cnc(C2CC2)nc1OC1CCC(F)(F)C1 (stereo partly drawn) [Example 146, 2-cyclopropyl-4-((3,3-difluorocyclopentyl)oxy)-N—((S,E)-4-(methylsulfonyl)but-3-en-2-yl)pyrimidine-5-carboxamide]	4.28		
COC1CN(c2ncc(C(=O)N[C@@H](C)/C=C/S(C)(=O)=O)c(Oc3ccccc3)n2)C1 [Example 169, (S,E)-2-(3-methoxyazetidin-1-yl)-N-(4-(methylsulfonyl)but-3-en-2-yl)-4-phenoxypyrimidine-5-carboxamide]	3.96		
CS(=O)(=O)/C=C/CNC(=O)c1ccc(C2CCCC2)cc1OC1CCCC1 [Example 198, (E)-4-cyclopentyl-2-(cyclopentyloxy)-N-(3-(methylsulfonyl)allyl)benzamide]	4.57		
C[C@@H](/C=C/S(C)(=O)=O)NC(=O)c1ccc(C2CCCC2)c2cccnc12 [Example 203, (S,E)-5-cyclopentyl-N-(4-(methylsulfonyl)but-3-en-2-yl)quinoline-8-carboxamide]			4.11
Cc1c(C2CC2)ncc(C(=O)N[C@@H](C)/C=C/S(C)(=O)=O)c1Oc1ccccc1 [Example 204, (S,E)-6-cyclopropyl-5-methyl-N-(4-(methylsulfonyl)but-3-en-2-yl)-4-phenoxynicotinamide]	4.02		
C[C@@H](/C=C/S(C)(=O)=O)NC(=O)c1cc2c(cc1Oc1ccccc1)CC(C)(C)C2=O [Example 248, (S,E)-2,2-dimethyl-N-(4-(methylsulfonyl)but-3-en-2-yl)-3-oxo-6-phenoxy-2,3-dihydro-1H-indene-5-carboxamide]			4.20
CC1(C)Cc2cc(Oc3ccccc3)c(C(=O)N3CC(=CS(C)(=O)=O)C3)cc2C1=O [Example 249, 2,2-dimethyl-6-(3-((methylsulfonyl)methylene)azetidine-1-carbonyl)-5-phenoxy-2,3-dihydro-1H-inden-1-one]			4.41
Cn1cnc2cc(C(=O)N[C@H](/C=C/S(C)(=O)=O)C3CC3)c(Oc3ccccc3)nc21 [Example 251, (S,E)-N-(1-cyclopropyl-3-(methylsulfonyl)allyl)-3-methyl-5-phenoxy-3H-imidazo[4,5-b]pyridine-6-carboxamide]	3.99		
N#C/C=C/CNC(=O)c1cnc(C2CC2)nc1Oc1ccccc1 [Example 266, (E)-N-(3-cyanoallyl)-2-cyclopropyl-4-phenoxypyrimidine-5-carboxamide]	3.94		
N#C/C=C\CNC(=O)c1cnc(C2CC2)nc1Oc1ccccc1 [Example 267, (Z)—N-(3-cyanoallyl)-2-cyclopropyl-4-phenoxypyrimidine-5-carboxamide]	4.54		
CS(=O)(=O)/C=C/CNC(=O)c1ccc(C2CCCC2)cc1OC1CC1 [Example 283, (E)-4-cyclopentyl-2-cyclopropoxy-N-(3-(methylsulfonyl)allyl)benzamide]	4.19		
